The results in this text go back to EP0908457B1, “3-(1,2-benzisothiazol- and isoxazol-5-Y1)-2,4(1H,3H)-pyrimidinedione or thione and 3-(1,2-benzisothiazol- and isoxazol-5-y1)-4(3H)-pyrimidinone or thione herbicidal agents” (BASF AKTIENGESELLSCHAFT, priority 1997, dated 1999).

The test system of data set [1] is Echinochloa oryzoides (Ard.) Fritsch. In words: Preemergence weed control under flooded paddy conditions, ECHORC (Watergrass (Calif.)). As to herbicidal effect rating, ECHORC: meaning of each grade not given here. It is filed as in vivo. As to conditions: preemergence, flooded paddy.
Data set [2] concerns Cyperus iria. The experiment in a line: Preemergence weed control under flooded paddy conditions, CYPIR (Rice Flatsedge). As to herbicidal effect rating, CYPIR: meaning of each grade not given here. Type of data set: in vivo. The note with it: preemergence, flooded paddy.
The test system of data set [3] is Sagittaria pygmaea, L. The experiment in a line: Preemergence weed control under flooded paddy conditions, SAGPY (Arrowhead (Pygmaea)). As to herbicidal effect rating, SAGPY: meaning of each grade not given here. Type of data set: in vivo. The note with it: preemergence, flooded paddy.
Data set [4] relates to Oryza sativa, (L.) Tebonnet. In words: Rice tolerance to post-transplant applications under flooded paddy conditions (Example 187), ORYSAT (Rice, Tebonnet). As to herbicidal effect rating ORYSAT: meaning of each grade not given here.
In data set [5] the test system is Monochoria vaginalis, Presl. The experiment in a line: Preemergence weed control under flooded paddy conditions, MOOVA (Monochoria). As to herbicidal effect rating, MOOVA: meaning of each grade not given here. The note with it: preemergence, flooded paddy. Type of data set: in vivo.
Data set [6] deals with Cyperus serotinus, Rottb. The experiment in a line: Preemergence weed control under flooded paddy conditions, CYPSE (Flatsedge). As to herbicidal effect rating, CYPSE: meaning of each grade not given here. Type of data set: in vivo. The note with it: preemergence.
Setting [7] is: 0.0320 kg/ha, rated three to four weeks after treatment.
Where [8] appears, read: 0.0620 kg/ha, rated three to four weeks after treatment.
[9] abbreviates: 0.1250 kg/ha, rated three to four weeks after treatment.
[10] abbreviates: 0.2500 kg/ha, rated three to four weeks after treatment.
[11] abbreviates: Rate 0.0313 kg/ha, rated three to four weeks after treatment.
The mark [12] stands for this setting: Rate 0.0625 kg/ha, rated three to four weeks after treatment.
Where [13] appears, read: Rate 0.1250 kg/ha, rated three to four weeks after treatment.
The mark [14] stands for this setting: Rate 0.2500 kg/ha, rated three to four weeks after treatment.
Setting [15] is: Rate 0.0320 kg/ha, rated 3-4 weeks after treatment.
[16] abbreviates: Rate 0.0620 kg/ha, rated 3-4 weeks after treatment.
Setting [17] is: Rate 0.1250 kg/ha, rated 3-4 weeks after treatment.
Where [18] appears, read: Rate 0.2500 kg/ha, rated 3-4 weeks after treatment.
[19] abbreviates: Rate 0.0320 kg/ha, rated three to four weeks after treatment.
Setting [20] is: Rate 0.0620 kg/ha, rated three to four weeks after treatment.

Molecules are shown by their SMILES.

In the case of `Cc1ccc(OC(C)(C)C(=O)O)c(-c2nsc3ccc(-n4c(=O)cc(C(F)(F)F)n(C)c4=O)cc23)c1` [Example 515, Propionic acid, 2-{{2-{5-[3,6-dihydro-3-methyl-2,6-dioxo-4-(trifluoromethyl)-1(2H)-pyrimidinyl]-1,2-benzisothiazol-3-yl}-p-tolyl}oxy}-2-methyl-], the ECHORC herbicidal rating in data set [1] (setting [7]) is recorded as 2.0; in data set [1] (setting [8]), 6.0; in data set [1] (setting [9]) it was 8.0; in data set [1] (setting [10]), 9.0. Also, the CYPIR herbicidal rating in data set [2] (setting [7]) was determined as 0.0; in data set [2] (setting [8]), 2.0; in data set [2] (setting [9]), 4.0; in data set [2] (setting [10]), 7.0. The SAGPY herbicidal rating in data set [3] (setting [7]), in data set [3] (setting [8]), in data set [3] (setting [9]) and in data set [3] (setting [10]) was 0.0 in each case. The “ORYSAT herbicidal rating (rice tolerance)” value in data set [4] (setting [7]) was 0.0; in data set [4] (setting [8]) it was 2.0; in data set [4] (setting [9]) it was 4.0; in data set [4] (setting [10]) it was 6.0. The MOOVA herbicidal rating in data set [5] (setting [7]), in data set [5] (setting [8]), in data set [5] (setting [9]) and in data set [5] (setting [10]) was 9.0 each time. The CYPSE herbicidal rating in data set [6] (setting [7]), in data set [6] (setting [8]), in data set [6] (setting [9]) and in data set [6] (setting [10]) was 0.0 throughout.
With `Cc1nsc2ccc(-n3c(=O)cc(C(F)(F)F)n(Cc4ccccc4)c3=O)cc12` [Example 218, 1-Benzyl-3-(3-methyl-1,2-benzisothiazol-5-yl)-6-(trifluoromethyl)-2,4(1H,3H)-pyrimidinedione], the “ECHORC herbicidal effect rating” value came to 0.0 in data set [1] (setting [11]), 0.0 in data set [1] (setting [12]), 2.0 in data set [1] (setting [13]) and 4.0 in data set [1] (setting [14]). Further, the “CYPIR herbicidal effect rating” value in data set [2] (setting [11]), in data set [2] (setting [12]), in data set [2] (setting [13]) and in data set [2] (setting [14]) was 0.0 throughout. Also, the “SAGPY herbicidal effect rating” value in data set [3] (setting [11]), in data set [3] (setting [12]), in data set [3] (setting [13]) and in data set [3] (setting [14]) was 0.0 each time. For the same compound, the “ORYSAT herbicidal effect rating” value in data set [4] (setting [11]) is 1.0; in data set [4] (setting [12]), 2.0; in data set [4] (setting [13]) it was 3.0; in data set [4] (setting [14]), 3.0. In addition, the “MOOVA herbicidal effect rating” value in data set [5] (setting [11]) is on record as 8.0; in data set [5] (setting [12]), 9.0; in data set [5] (setting [13]) it was 9.0; in data set [5] (setting [14]) it was 9.0. The “CYPSE herbicidal effect rating” value in data set [6] (setting [11]), in data set [6] (setting [12]), in data set [6] (setting [13]) and in data set [6] (setting [14]) was 0.0 throughout.
With `COCCCOCCCOC(=O)COc1ccc(C)cc1-c1nsc2ccc(-n3c(=O)cc(C(F)(F)F)n(C)c3=O)cc12` [Example 536, Acetic acid, {{2-{5-[3,6-dihydro-3-methyl-2,6-dioxo-4-(trifluoromethyl)-1(2H)-pyrimidinyl]-1,2-benzisothiazol-3-yl}-p-tolyl}oxy}-, 3-(3-methoxypropoxy)propyl ester], the “herbicidal effect rating, ECHORC” value came to 3.0 in data set [1] (setting [15]), 4.0 in data set [1] (setting [16]), 5.0 in data set [1] (setting [17]) and 9.0 in data set [1] (setting [18]). Moreover, the “herbicidal effect rating, CYPIR” value in data set [2] (setting [15]) turned out to be 0.0; in data set [2] (setting [16]), 0.0; in data set [2] (setting [17]), 0.0; in data set [2] (setting [18]), 4.0. The “herbicidal effect rating, SAGPY” value in data set [3] (setting [15]), in data set [3] (setting [16]), in data set [3] (setting [17]) and in data set [3] (setting [18]) was 0.0 each time. Also, the “herbicidal effect rating ORYSAT” value in data set [4] (setting [15]) is given as 0.0; in data set [4] (setting [16]), 0.0; in data set [4] (setting [17]), 1.0; in data set [4] (setting [18]), 4.0. The “herbicidal effect rating, MOOVA” value in data set [5] (setting [15]), in data set [5] (setting [16]), in data set [5] (setting [17]) and in data set [5] (setting [18]) was 9.0 each time. Also, the “herbicidal effect rating, CYPSE” value in data set [6] (setting [15]), in data set [6] (setting [16]), in data set [6] (setting [17]) and in data set [6] (setting [18]) was 0.0 throughout.
Consider `C=C(Cl)COC(=O)c1nsc2ccc(-n3c(=O)cc(C(F)(F)F)n(C)c3=O)cc12` [Example 386, 1,2-Benzisothiazole-3-carboxylic acid, 5-[3,6-dihydro-3-methyl-2,6-dioxo-4-(trifluoromethyl)-1(2H)-pyrimidinyl]-, 2-chloroallyl ester], for which the “herbicidal effect rating, ECHORC” value in data set [1] (setting [19]) stood at 0.0; in data set [1] (setting [20]), 3.0; in data set [1] (setting [13]), 4.0; in data set [1] (setting [14]), 5.0. The “herbicidal effect rating, CYPIR” value was 7.0 in data set [2] (setting [19]), 9.0 in data set [2] (setting [20]), 9.0 in data set [2] (setting [13]) and 9.0 in data set [2] (setting [14]). The “herbicidal effect rating, SAGPY” value in data set [3] (setting [19]) worked out at 4.0; in data set [3] (setting [20]), 7.0; in data set [3] (setting [13]), 9.0; in data set [3] (setting [14]), 9.0. Also, the “herbicidal effect rating ORYSAT” value in data set [4] (setting [19]), in data set [4] (setting [20]), in data set [4] (setting [13]) and in data set [4] (setting [14]) was 5.0 throughout. Further, the “herbicidal effect rating, MOOVA” value in data set [5] (setting [19]), in data set [5] (setting [20]), in data set [5] (setting [13]) and in data set [5] (setting [14]) was 9.0 each time. Further, the “herbicidal effect rating, CYPSE” value in data set [6] (setting [19]) came out at 3.0; in data set [6] (setting [20]) it was 7.0; in data set [6] (setting [13]) it was 7.0; in data set [6] (setting [14]) it was 7.0.
For `Cc1ccc(OC(C)C(=O)NS(C)(=O)=O)c(-c2nsc3ccc(-n4c(=O)cc(C(F)(F)F)n(C)c4=O)cc23)c1` (stereo not drawn) [Example 572, Propionamide, 2-{{2-{5-[3,6-dihydro-3-methyl-2,6-dioxo-4-(trifluoromethyl)-1(2H)-pyrimidinyl)-1,2-benzisothiazol-3-yl}-p-tolyl}oxy}-N-(methylsulfonyl)-], the “herbicidal effect rating, ECHORC” value in data set [1] (setting [19]) stood at 0.0; in data set [1] (setting [20]) it was 0.0; in data set [1] (setting [13]), 2.0; in data set [1] (setting [14]), 6.0. The “herbicidal effect rating, CYPIR” value in data set [2] (setting [19]) is given as 0.0; in data set [2] (setting [20]), 0.0; in data set [2] (setting [13]), 2.0; in data set [2] (setting [14]) it was 5.0. For the same compound, the “herbicidal effect rating, SAGPY” value in data set [3] (setting [19]) was 0.0; in data set [3] (setting [20]), 0.0; in data set [3] (setting [13]), 0.0; in data set [3] (setting [14]), 3.0. Also, the “herbicidal effect rating ORYSAT” value in data set [4] (setting [19]) was found to be 0.0; in data set [4] (setting [20]), 1.0; in data set [4] (setting [13]) it was 3.0; in data set [4] (setting [14]) it was 6.0. The “herbicidal effect rating, MOOVA” value in data set [5] (setting [19]) is given as 0.0; in data set [5] (setting [20]), 6.0; in data set [5] (setting [13]), 6.0; in data set [5] (setting [14]) it was 9.0. In addition, the “herbicidal effect rating, CYPSE” value in data set [6] (setting [19]) is on record as 0.0; in data set [6] (setting [20]) it was 0.0; in data set [6] (setting [13]), 0.0; in data set [6] (setting [14]) it was 2.0.
